Measurements taken from patent US20190135834A1, “5-SUBSTITUTED AZABENZIMIDAZOLE DERIVATIVE HAVING ???? ACTIVATION ACTION” (Shionogi & Co., Ltd., priority 2016, published 2019).

Biological target: T1, Human AMPK α2ß2γ1 (Homo sapiens, UniProt O43741+P54646)
T1 construct: The full length cDNAs of human AMPK ß2 (NM_005399.3) and human AMPK α2 (NM_006252.3); The full length cDNAs of human AMPK ß2 (NM_005399.3); 6xHis (N); made in house; host or cells: Escherichia coli BL21 CodonPlus (DE3)-RIL
Assay: Test Example 2: evaluation of an activator for AMP-activated protein kinase (AMPK), LabChip mobility shift assay with CaMKK2-phosphorylated enzyme
Format: biochemical
Settings: for EC150 (compound concentration showing 150% relative to the control (100%)): FL-Peptide 7 substrate, 25° C., 2 hours; for Emax: read-out: Emax (maximum rate of increase in activity within the measurement range)
Procedure: The full length cDNAs of human AMPK ß2 (NM_005399.3) and human AMPK α2 (NM_006252.3) were inserted into the MCS1 and MCS2 of the pETDuet-1 vector to prepare a human AMPK ß2 and human AMPK α2 (6× His tag at the 5′ terminus) expressing plasmid. The plasmid was cotransfected with an expression plasmid, in which the full length cDNA of human AMPK γ1 (NM_002733.3) had been inserted into pET28b(+), into BL21 CodonPlus (DE3)-RIL to obtain an expression strain. The expression strain was cultured in TB medium, followed by induction with 0.5 mM IPTG, and cultured at 25° C. for 3 hours and then harvested. After ultrasonication, supernatant was collected and applied to Histrap FF column (GE) and RESOURCE Q column (GE) to prepare 12.5 mg of purified sample containing three types of subunit from 1.8 L of broth.
Preparation method of human CaMKK2 used to impart activity to AMPK An expression vector, in which the full length cDNA of human CAMKK ß (NM_172226.1) had been inserted into pGEX-6P-3, was transfected into BL21 Star (DE3). The expression strain was cultured in TB medium, followed by induction with 0.5 mM IPTG, and cultured at 25° C. for 3 hours and then harvested. After ultrasonication, supernatant was collected and applied to GSTrap FF column (GE) to prepare 14 mg of GST-fused CAMKK ß from 720 ml of broth.
Thus, phosphorylation treatment was carried out as pretreatment.
Human AMPK α2ß2γ1 in an amount to give a conversion rate of approximately 10% by reaction for 2 hours, and CaMKK2 in an amount capable of sufficiently imparting activity to AMPK for one hour were mixed in a buffer solution consisting of a 50 mM HEPES-NaOH buffer solution (pH 7.0), 100 mM NaCl, 5 mM magnesium chloride, 0.1% bovine serum albumin, 0.2 mM sodium orthovanadate(V), 1 mM ethylene glycol-bis(2-aminoethyl ether)-N,N,N′,N′-tetraacetic acid (EGTA), 5 mM disodium ß-glycerophosphate, 1 mM dithiothreitol and 0.2 mM ATP, and the resulting liquid was left to stand at 25° C. for 1 to 1.5 hours to sufficiently phosphorylate AMPK.
After that, to the enzyme liquid, which had been subjected to phosphorylation treatment, a compound dissolved in DMSO was added so as to have a 1% DMSO concentration. The resulting liquid was left to stand for 10 minutes.
To the liquid, a substrate solution consisting of a 50 mM HEPES-NaOH buffer solution (pH 7.0), 100 mM NaCl, 10 mM magnesium chloride, 0.1% bovine serum albumin, 0.2 mM sodium orthovanadate(V), 1 mM ethylene glycol-bis(2-aminoethyl ether)-N,N,N′,N′-tetraacetic acid (EGTA), 5 mM disodium ß-glycerophosphate, 2 mM dithiothreitol, 0.4 mM ATP and 3 μM FL-Peptide 7 (manufactured by Caliper Life Sciences, Inc.) was added in equal amount (10 μl in total). The resulting liquid was allowed to react at 25° C. for 2 hours, and 10 μl of 20 mM EDTA was added thereto to stop the reaction.
To detect phosphorylated fluorescent substrates, the reaction mixture was applied to a measuring device, LabChip EZ Reader II manufactured by Caliper Life Science, Inc., for detecting fluorescence by using differences in mobility due to differences in charge. The setting conditions for the device were pressure, −1.5 PSI; upstream voltage, −2250 V; downstream voltage, −400 V; post sample buffer sip time, 40 seconds; final delay, 120 seconds; and peak order, Product First.
A conversion rate was calculated from the peak heights of the obtained substrate and product. The conversion rate when not containing a compound was used as a control, and a concentration dependent curve was made by plotting the rate of increase in activity to the control at each concentration of a compound.

T1 sequence (P54646 whole entry): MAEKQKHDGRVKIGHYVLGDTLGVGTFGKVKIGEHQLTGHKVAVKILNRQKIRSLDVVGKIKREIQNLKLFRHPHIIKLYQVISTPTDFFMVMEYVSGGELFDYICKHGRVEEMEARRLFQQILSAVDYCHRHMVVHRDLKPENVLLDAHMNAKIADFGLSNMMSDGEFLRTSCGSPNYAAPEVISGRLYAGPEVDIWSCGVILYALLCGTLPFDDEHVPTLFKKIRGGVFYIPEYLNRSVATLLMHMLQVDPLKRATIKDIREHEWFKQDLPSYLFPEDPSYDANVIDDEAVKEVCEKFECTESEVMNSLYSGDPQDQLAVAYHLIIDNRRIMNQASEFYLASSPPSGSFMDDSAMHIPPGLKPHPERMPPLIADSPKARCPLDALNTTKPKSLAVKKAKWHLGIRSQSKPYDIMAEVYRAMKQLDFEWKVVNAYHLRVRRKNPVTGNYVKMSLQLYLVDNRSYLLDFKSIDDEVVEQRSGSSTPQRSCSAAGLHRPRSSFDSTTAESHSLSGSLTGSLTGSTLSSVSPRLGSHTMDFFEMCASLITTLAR
T1 sequence (O43741 whole entry): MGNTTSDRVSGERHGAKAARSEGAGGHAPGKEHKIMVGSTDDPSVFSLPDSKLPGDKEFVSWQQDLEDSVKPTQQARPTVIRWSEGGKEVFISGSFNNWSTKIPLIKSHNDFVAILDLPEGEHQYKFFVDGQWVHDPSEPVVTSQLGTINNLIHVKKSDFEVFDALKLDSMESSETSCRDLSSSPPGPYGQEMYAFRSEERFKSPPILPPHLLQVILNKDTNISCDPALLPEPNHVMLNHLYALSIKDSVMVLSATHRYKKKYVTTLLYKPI
T1 sequence (P54619 whole entry partner): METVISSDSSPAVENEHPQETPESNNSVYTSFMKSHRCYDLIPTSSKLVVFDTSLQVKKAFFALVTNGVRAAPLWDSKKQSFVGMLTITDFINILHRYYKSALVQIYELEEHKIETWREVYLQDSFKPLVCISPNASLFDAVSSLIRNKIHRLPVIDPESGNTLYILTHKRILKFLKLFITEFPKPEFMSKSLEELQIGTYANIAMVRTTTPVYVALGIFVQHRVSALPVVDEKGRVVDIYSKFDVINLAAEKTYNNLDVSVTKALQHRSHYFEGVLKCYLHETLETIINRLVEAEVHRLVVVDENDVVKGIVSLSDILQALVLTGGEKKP

Row | Compound | EC150 (compound concentration showing 150% relative to the control (100%)) [nM] | Emax (relative to control (100%)) [%] | Emax (maximum rate of increase in activity within the measurement range) (relative to control (100%)) [%]
1 | O[C@@H]1CO[C@H]2[C@@H]1OC[C@H]2Oc1nc2nc(N[C@H]3CCc4cc(/C=C/COC5CCCCO5)cc(F)c43)c(Cl)cc2[nH]1 (stereo partly shown) [Compound I-2-39] | 11 | 583 | 
2 | O[C@@H]1CO[C@H]2[C@@H]1OC[C@H]2Oc1nc2nc(OC3CCc4cc(-c5cscn5)cc(F)c43)c(Cl)cc2[nH]1 (stereo partly shown) [Compound I-1-74] | 9.9 | 373 | 
3 | CC(C)(O)CCOc1cc(F)c2c(c1)CCC2Nc1nc2nc(O[C@@H]3CO[C@H]4[C@@H]3OC[C@H]4O)[nH]c2cc1Cl (stereo partly shown) [Compound I-1-88] | 5.9 | 376 | 
4 | Cn1cc(-c2cc(F)c3c(c2)CCC3Nc2nc3nc(O[C@@H]4CO[C@H]5[C@@H]4OC[C@H]5O)[nH]c3cc2Cl)cn1 (stereo partly shown) [Compound I-1-44] | 5.6 | 422 | 
5 | O[C@@H]1CO[C@H]2[C@@H]1OC[C@H]2Oc1nc2nc(NC3CCc4cc(-c5ccccc5)cnc43)c(Cl)cc2[nH]1 (stereo partly shown) [Compound I-1-46] | 54 | 381 | 
6 | O=C(COc1cc(F)c2c(c1)CCC2Nc1nc2nc(O[C@@H]3CO[C@H]4[C@@H]3OC[C@H]4O)[nH]c2cc1Cl)NCO (stereo partly shown) [Compound I-1-43] | 6.5 | 392 | 
7 | COc1ccc(-c2cc(F)c3c(c2)CCC3Nc2nc3nc(O[C@@H]4CO[C@H]5[C@@H]4OC[C@H]5O)[nH]c3cc2Cl)cn1 (stereo partly shown) [Compound I-2-26] | 7.1 |  | 669
8 | Cn1ccc(-c2cc(F)c3c(c2)CCC3Oc2nc3nc(O[C@@H]4CO[C@H]5[C@@H]4OC[C@H]5O)[nH]c3cc2Cl)cc1=O (single isomer, unassigned) [Compound I-1-23] | 1.3 | 454 | 
9 | O[C@@H]1CO[C@H]2[C@@H]1OC[C@H]2Oc1nc2nc(N[C@H]3CCc4cc(C5=CCOC5)cc(F)c43)c(Cl)cc2[nH]1 [Compound I-2-47] | 2.3 | 724 | 
10 | OCC/C=C/c1cc(F)c2c(c1)CCC2Nc1nc2nc(O[C@@H]3CO[C@H]4[C@@H]3OC[C@H]4O)[nH]c2cc1Cl (stereo partly shown) [Compound I-1-100] | 3.5 | 441 | 
11 | O[C@@H]1CO[C@H]2[C@@H]1OC[C@H]2Oc1nc2nc(N[C@H]3CCc4cc(O[C@H]5CC[C@@H](O)CC5)cc(F)c43)c(Cl)cc2[nH]1 [Compound I-2-01] | 1.8 | 646 | 
12 | COCC(=O)NCCOc1cc(F)c2c(c1)CCC2Nc1nc2nc(O[C@@H]3CO[C@H]4[C@@H]3OC[C@H]4O)[nH]c2cc1Cl (stereo partly shown) [Compound I-2-33] | 3 | 704 | 
13 | Cn1cc(-c2cnc3c(c2)CCC3Nc2nc3nc(O[C@@H]4CO[C@H]5[C@@H]4OC[C@H]5O)[nH]c3cc2Cl)cn1 (stereo partly shown) [Compound I-1-7] | 1.6 | 614 | 
14 | O[C@@H]1CO[C@H]2[C@@H]1OC[C@H]2Oc1nc2nc(N[C@H]3CCc4cc(-c5cnc(C(F)(F)F)nc5)cc(F)c43)c(Cl)cc2[nH]1 [Compound I-2-64] | 9.3 | 676 | 
